Test system: CD1 female mouse brain lipidome
Experiment: Brain-region lipid levels (HPLC/MS/MS lipidomics) 2 h after single i.p. 3 mg/kg CP 55,940 vs vehicle
Type: in vivo
Protocol: The Bloomington Institutional Animal Care and Use Committee of Indiana University reviewed and approved the animal procedures. Female mice from the CD1 strain were utilized to match our study examining THC’s effects on the brain lipidome ([Leishman et al., 2018]). Mice were given a single i.p. injection of either 3 mg/kg CP or 1:1:18 cremophor:ethanol:saline vehicle (please refer to the section “3 mg/kg CP Is Relevant for Synthetic Cannabinoid Abuse and Has Stronger Effects on the Female Mouse Brain Lipidome During Adolescence” for a justification of dose and use of female mice). Three different age groups were given injections: PND 35 and PND 50 adolescents, and adult mice (PND 113). At least eight mice in each age group received CP and at least eight received vehicle. Matching the THC study time course ([Leishman et al., 2018]), mice were sacrificed via rapid decapitation 2 h after injection. Brains were immediately removed and flash-frozen in liquid nitrogen, and then stored at -80°C until dissections were performed. Brains were dissected on an ice-cold dissection plate into the following regions: STR, HIPP, CER, THAL, CTX, HYP, MID, and STEM. These abbreviations for these brain areas will be used exclusively when discussing the results generated by these specific dissections. Each dissected area was immediately placed in liquid nitrogen and then stored at -80°C until used for lipid extraction.
Tissue extracts were performed as previously described ([Bradshaw et al., 2006]; [Stuart et al., 2013]; [Raboune et al., 2014]; [Leishman et al., 2016a],[b], [2017], [2018]). First, samples were shock frozen in liquid nitrogen, weighed, and transferred to a centrifuge tube. The mass of the largest sample was multiplied by 50 to determine how many milliliters of HPLC-grade methanol (Fisher, Fair Lawn, NJ, United States) to add. Then, samples were spiked with 500 pmol deuterium-labeled NAGly (d8NAGly; Cayman Chemical, Ann Arbor, MI, United States). Samples were placed on ice in darkness for 2 h then individually homogenized and centrifuged at 19,000 × g for 20 min at 20°C. Supernatants were diluted with HPLC water (purified in house) to make a solution of 75% water, 25% supernatant. Lipids were partially purified on C18 solid phase extraction columns (Agilent, Palo Alto, CA, United States). A series of four elutions with 1.5 mL of 60%, 75%, 85%, and 100% methanol were collected ([Stuart et al., 2013]; [Leishman et al., 2016a],[b], [2018]).
As previously described ([Bradshaw et al., 2006]; [Tan et al., 2006]; [Smoum et al., 2010]; [Stuart et al., 2013]; [Tortoriello et al., 2013]; [Raboune et al., 2014]; [Leishman et al., 2016a],[b], [2017], [2018]), samples were analyzed using an Applied Biosystems API 3000 triple quadrupole mass spectrometer with electrospray ionization (Foster City, CA, United States). Using an Agilent XDB-C18 reversed phase analytical column and optimized mobile phase gradients, 20 μL from each elution were chromatographed. Two Shimadzu 10ADvp pumps (Columbia, MD, United States) provided the pressure for gradient elution. Mobile phase A: 20% methanol, 80% water (v/v) and 1 mM ammonium acetate (Sigma, St. Louis, MO, United States). Mobile phase B: 100% methanol, 1 mM ammonium acetate. Every method run began with 0% mobile phase B, reached 100% mobile phase B flowing at 0.2 mL/min, and gradually returned to 0% mobile phase B.
This screening library will be referred to as the lipidome when discussing data from this study. HPLC/MS/MS data were analyzed using Analyst software (Applied Biosystems) ([Bradshaw et al., 2006]; [Tan et al., 2006]; [Stuart et al., 2013]; [Tortoriello et al., 2013]; [Raboune et al., 2014]; [Leishman et al., 2016a],[b], [2017], [2018]). Chromatograms (Supplementary Figure 3) were generated by determining the retention time of analytes from the analytical column with a [M-1] or [M+1] parent peak and a fragmentation peak corresponding to the programmed values. […]

[1] = adult midbrain, 3mg/kg CP 55,940, p .049
[2] = adult midbrain, 3mg/kg CP 55,940, p .055
[3] = adult midbrain, 3mg/kg CP 55,940, p .060
[4] = adult midbrain, 3mg/kg CP 55,940, p .063
[5] = adult midbrain, 3mg/kg CP 55,940, p .073
[6] = adult midbrain, 3mg/kg CP 55,940, p .087
[7] = adult midbrain, 3mg/kg CP 55,940, p .098
[8] = brainstem, PND35, 3 mg/kg CP 55,940 vs Veh
[9] = brainstem, PND35 female mice, 3mg/kg CP 55,940, mean
[10] = brainstem, PND 50, 3 mg/kg CP 55,940

CCCCCCC(C)(C)c1ccc([C@@H]2C[C@H](O)CC[C@H]2CCCO)c(O)c1 [CP 55,940]
PGE2 Direction (relative to Veh) [1]: ↑
PGE2 Magnitude (x Veh level) [1]: 1.17
6-ketoPGF1α Direction (relative to Veh) [2]: ↑
6-ketoPGF1α Magnitude (x Veh level) [2]: 1.29
N-arachidonoyl ethanolamine, Direction (relative to Veh) [3]: ↓
N-arachidonoyl ethanolamine, Magnitude (x Veh level) [3]: 0.78
N-linoleoyl glycine Direction (relative to Veh) [4]: ↓
N-linoleoyl glycine Magnitude (x Veh level) [4]: 0.52
N-stearoyl ethanolamine direction (relative to Veh) [5]: ↑
N-stearoyl ethanolamine magnitude (x Veh level) [5]: 1.44
N-linoleoyl serine Direction (relative to Veh) [6]: ↓
N-linoleoyl serine Magnitude (x Veh level) [6]: 0.79
N-arachidonoyl serine Direction (relative to Veh) [7]: ↓
N-arachidonoyl serine Magnitude (x Veh level) [7]: 0.53
changes in lipid levels that were decreases (adult, eight regions): 78
2-arachidonoyl glycerol, Direction (relative to Veh) [8]: ↓
2-arachidonoyl glycerol, Magnitude (x Veh level) [8]: 0.81 x Veh level
2-linoleoyl glycerol Direction (relative to Veh) [8]: ↓
2-linoleoyl glycerol Magnitude (x Veh level) [8]: 0.82 x Veh level
N-arachidonoyl GABA Direction (relative to Veh) [8]: ↓
N-arachidonoyl GABA Magnitude (x Veh level) [8]: 0.70 x Veh level
N-arachidonoyl taurine Direction (relative to Veh) [8]: ↓
N-arachidonoyl taurine Magnitude (x Veh level) [8]: 0.89 x Veh level
N-docosahexaenoyl leucine Direction (relative to Veh) [8]: ↑
N-docosahexaenoyl leucine Magnitude (x Veh level) [8]: 1.37 x Veh level
N-docosahexaenoyl valine Direction (relative to Veh) [8]: ↑
N-docosahexaenoyl valine Magnitude (x Veh level) [8]: 1.56 x Veh level
N-oleoyl leucine Direction (relative to Veh) [8]: ↑
N-oleoyl leucine Magnitude (x Veh level) [8]: 1.15 x Veh level
N-oleoyl proline Direction (relative to Veh) [8]: ↑
N-oleoyl proline Magnitude (x Veh level) [8]: 1.16 x Veh level
N-oleoyl valine Direction (relative to Veh) [8]: ↑
N-oleoyl valine Magnitude (x Veh level) [8]: 1.26 x Veh level
N-palmitoyl leucine, Direction (relative to Veh) [8]: ↑
N-palmitoyl leucine, Magnitude (x Veh level) [8]: 1.38 x Veh level
N-palmitoyl phenylalanine Direction (relative to Veh) [8]: ↑
N-palmitoyl phenylalanine Magnitude (x Veh level) [8]: 1.22 x Veh level
N-palmitoyl proline Direction (relative to Veh) [8]: ↑
N-palmitoyl proline Magnitude (x Veh level) [8]: 1.20 x Veh level
N-palmitoyl tryptophan Direction (relative to Veh) [8]: ↓
N-palmitoyl tryptophan Magnitude (x Veh level) [8]: 0.82 x Veh level
N-palmitoyl valine Direction (relative to Veh) [8]: ↑
N-palmitoyl valine Magnitude (x Veh level) [8]: 1.40 x Veh level
N-stearoyl valine Direction (relative to Veh) [8]: ↑
N-stearoyl valine Magnitude (x Veh level) [8]: 1.41 x Veh level
PGE2 Direction (relative to Veh) [8]: ↑
PGE2 Magnitude (x Veh level) [8]: 1.15 x Veh level
2-arachidonoyl glycerol level [9]: 3.96E-10
2-linoleoyl glycerol level [9]: 1.58E-10
2-oleoyl glycerol level [9]: 1.53E-09
2-palmitoyl glycerol level [9]: 2.82E-10
6-ketoPGF1α level [9]: 1.2E-11
11-OH-THC level [9]: BDL
11-nor-9-carboxyTHC level [9]: BDL
Arachidonic acid level [9]: 1.65E-09
Cannabidiol level [9]: BDL
Linoleic acid level [9]: 5.88E-10
N- stearoyl valine level [9]: 5.2E-13
N-arachidonoyl serine level [9]: 3.04E-12
N-arachidonoyl taurine level [9]: 1.88E-11
N-arachidonoyl tryptophan level [9]: BDL
N-arachidonoyl tyrosine level [9]: 6.37E-13
N-docosahexaenoyl serine level [9]: 1.42E-11
N-docosahexaenoyl tyrosine level [9]: 8.89E-13
N-docosahexaenoyl valine level [9]: 1.82E-13
N-linoleoyl serine level [9]: 2.61E-11
N-linoleoyl tryptophan level [9]: BDL
N-linoleoyl tyrosine level [9]: BDL
N-nervonoyl valine level [9]: BDL
N-oleoyl proline level [9]: 6.88E-13
N-oleoyl serine level [9]: 1.44E-10
N-oleoyl tyrosine level [9]: 5.15E-13
N-oleoyl valine level [9]: 5.41E-13
N-palmitoyl proline level [9]: 9.02E-13
N-palmitoyl serine level [9]: 3.95E-11
N-palmitoyl tryptophan level [9]: 2.02E-13
N-palmitoyl tyrosine level [9]: 8.2E-13
N-palmitoyl valine level [9]: 1.16E-12
N-stearoyl proline level [9]: 4.63E-13
N-stearoyl serine level [9]: 2.01E-11
N-stearoyl tryptophan level [9]: 2.84E-13
N-stearoyl tyrosine level [9]: 8.52E-14
Oleic acid level [9]: 1.63E-09
PGE2 level [9]: 2.93E-10
PGF2α level [9]: 2.4E-10
PhosphoLEA level [9]: 2.06E-11
THC level [9]: BDL
2-arachidonoyl glycerol level, Mean [10]: 2.23E-10
2-linoleoyl glycerol level, Mean [10]: 2.39E-10
2-oleoyl glycerol level, Mean [10]: 3.85E-09
2-palmitoyl glycerol level, Mean [10]: 8.83E-10
6-ketoPGF1α level, Mean [10]: 1.35E-11
11-OH-THC level, Mean [10]: BDL
11-nor-9-carboxyTHC level, Mean [10]: BDL
Arachidonic acid level, Mean [10]: 1.44E-10
Cannabidiol level, Mean [10]: BDL
Linoleic acid level, Mean [10]: 1.4E-10
N- stearoyl valine level, Mean [10]: 8.37E-14
N-arachidonoyl GABA level, Mean [10]: 3.67E-12
N-arachidonoyl alanine level, Mean [10]: 1.22E-13
N-arachidonoyl dopamine level, Mean [10]: BDL
N-arachidonoyl ethanolamine level, Mean [10]: 2.44E-11

— article PMC6277767, “Broad and Region-Specific Impacts of the Synthetic Cannabinoid CP 55,940 in Adolescent and Adult Female Mouse Brains” (Frontiers in Molecular Neuroscience, 2018)
